Measured values as given in PubChem BioAssay AID1963984 (Molecular Pharmacology Branch, DTP, NCI, 2024).

System: 233499-124-R-J3-PDC spheroids with HUVEC/MSC, viability
Assay: Anticancer human tumor 233499-124-R-J3-PDC patient-derived colon adenocarcinoma cell line growth inhibition [PI3K]
Details: for IC50: curve of first compound; for viability, T/C: stronger effect = lower value; active = viability on the fitted dose curve at most 10% of control; inactive = the rest
Summary of the method: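 Spheroid viability read-out. Co-cultures contained the tumor line plus HUVEC and human MSCs. Each agent was paired with a PI3K inhibitor (inavolisib, alpelisib, duvelisib, copanlisib) across half-log dilutions starting at clinical Cmax, or at 10 microM when Cmax was unknown.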

[1] = second compound 0.0316 µM, first compound 0.000316 µM
[2] = second compound 0.0316 µM, first compound 0.001 µM
[3] = second compound 0.0316 µM, first compound 0.00316 µM
[4] = second compound 0.0316 µM, first compound 0.01 µM
[5] = second compound 0.0316 µM, first compound 0.0316 µM
[6] = second compound 0.0316 µM, first compound 0.1 µM
[7] = second compound 0.1 µM, first compound 0.000316 µM
[8] = second compound 0.1 µM, first compound 0.001 µM
[9] = second compound 0.1 µM, first compound 0.00316 µM
[10] = second compound 0.1 µM, first compound 0.01 µM
[11] = second compound 0.1 µM, first compound 0.0316 µM
[12] = second compound 0.1 µM, first compound 0.1 µM
[13] = second compound 0.316 µM, first compound 0.000316 µM
[14] = second compound 0.316 µM, first compound 0.001 µM
[15] = second compound 0.316 µM, first compound 0.00316 µM
[16] = second compound 0.316 µM, first compound 0.01 µM
[17] = second compound 0.316 µM, first compound 0.0316 µM
[18] = second compound 0.316 µM, first compound 0.1 µM
[19] = second compound 1 µM, first compound 0.000316 µM
[20] = second compound 1 µM, first compound 0.001 µM
[21] = second compound 1 µM, first compound 0.00316 µM
[22] = second compound 1 µM, first compound 0.01 µM
[23] = second compound 1 µM, first compound 0.0316 µM
[24] = second compound 1 µM, first compound 0.1 µM
[25] = second compound 3.16 µM, first compound 0.000316 µM
[26] = second compound 3.16 µM, first compound 0.001 µM
[27] = second compound 3.16 µM, first compound 0.00316 µM
[28] = second compound 3.16 µM, first compound 0.01 µM
[29] = second compound 3.16 µM, first compound 0.0316 µM
[30] = second compound 3.16 µM, first compound 0.1 µM
[31] = second compound 10 µM, first compound 0.000316 µM
[32] = second compound 10 µM, first compound 0.001 µM
[33] = second compound 10 µM, first compound 0.00316 µM
[34] = second compound 10 µM, first compound 0.01 µM
[35] = second compound 10 µM, first compound 0.0316 µM
[36] = second compound 10 µM, first compound 0.1 µM
[37] = second compound 0.0316 µM, first compound 0.316 µM
[38] = second compound 0.0316 µM, first compound 1 µM
[39] = second compound 0.0316 µM, first compound 3.16 µM
[40] = second compound 0.0316 µM, first compound 10 µM
[41] = second compound 0.1 µM, first compound 0.316 µM
[42] = second compound 0.1 µM, first compound 1 µM
[43] = second compound 0.1 µM, first compound 3.16 µM
[44] = second compound 0.1 µM, first compound 10 µM
[45] = second compound 0.316 µM, first compound 0.316 µM
[46] = second compound 0.316 µM, first compound 1 µM
[47] = second compound 0.316 µM, first compound 3.16 µM
[48] = second compound 0.316 µM, first compound 10 µM
[49] = second compound 1 µM, first compound 0.316 µM
[50] = second compound 1 µM, first compound 1 µM
[51] = second compound 1 µM, first compound 3.16 µM
[52] = second compound 1 µM, first compound 10 µM
[53] = second compound 3.16 µM, first compound 0.316 µM
[54] = second compound 3.16 µM, first compound 1 µM
[55] = second compound 3.16 µM, first compound 3.16 µM
[56] = second compound 3.16 µM, first compound 10 µM
[57] = second compound 10 µM, first compound 0.316 µM
[58] = second compound 10 µM, first compound 1 µM
[59] = second compound 10 µM, first compound 3.16 µM
[60] = second compound 10 µM, first compound 10 µM
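Also: spheroids exposed to agents for seven days before readout.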
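For viability, T/C in this document: percent viability relative to DMSO vehicle control taken as 100%.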

CC(C)n1nc(-c2ccc3oc(N)nc3c2)c2c(N)ncnc21 + CC(Nc1ncnc2nc[nH]c12)c1cc2cccc(Cl)c2c(=O)n1-c1ccccc1
> 0.1 µM: IC50 (second compound 0.316 µM) | IC50 (second compound 3.16 µM)
0.0909 µM: IC50 (second compound 10 µM)
inactive: viability, T/C [1] 108% | viability, T/C [2] 90.8% | viability, T/C [3] 104% | viability, T/C [4] 79.4% | viability, T/C [5] 73.2% | viability, T/C [6] 44.5% | viability, T/C [7] 96.3% | viability, T/C [8] 85.1% | viability, T/C [9] 97.8% | viability, T/C [10] 79.3% | viability, T/C [11] 84.2% | viability, T/C [12] 45.9% | viability, T/C [13] 93.2% | viability, T/C [14] 82.6% | viability, T/C [15] 83.3% | viability, T/C [16] 95.9% | viability, T/C [17] 75.2% | viability, T/C [18] 81.7% | viability, T/C [19] 88.5% | viability, T/C [20] 82.2% | viability, T/C [21] 104% | viability, T/C [22] 93% | viability, T/C [23] 83.2% | viability, T/C [24] 43.3% | viability, T/C [25] 83.4% | viability, T/C [26] 89.5% | viability, T/C [27] 107% | viability, T/C [28] 67.7% | viability, T/C [29] 74.3% | viability, T/C [30] 64.8% | viability, T/C [31] 82.4% | viability, T/C [32] 96.2% | viability, T/C [33] 88.3% | viability, T/C [34] 79.7% | viability, T/C [35] 78.8% | viability, T/C [36] 47.2%
0.083 µM: IC50 (second compound 1 µM)
0.0811 µM: IC50 (second compound 0.0316 µM)
0.0893 µM: IC50 (second compound 0.1 µM)

CC1(C)CCC(CN2CCN(c3ccc(C(=O)NS(=O)(=O)c4ccc(NCC5CCOCC5)c([N+](=O)[O-])c4)c(Oc4cnc5[nH]ccc5c4)c3)CC2)=C(c2ccc(Cl)cc2)C1 + CC(Nc1ncnc2nc[nH]c12)c1cc2cccc(Cl)c2c(=O)n1-c1ccccc1
5.69 µM: IC50 (second compound 0.0316 µM)
inactive: viability, T/C [5] 87.4% | viability, T/C [6] 101% | viability, T/C [37] 95.4% | viability, T/C [38] 96.6% | viability, T/C [39] 96.2% | viability, T/C [11] 89.9% | viability, T/C [12] 98.7% | viability, T/C [41] 87.5% | viability, T/C [42] 99.6% | viability, T/C [43] 106% | viability, T/C [17] 116% | viability, T/C [18] 92.6% | viability, T/C [45] 89.8% | viability, T/C [46] 95.4% | viability, T/C [47] 96.7% | viability, T/C [23] 96.5% | viability, T/C [24] 83.6% | viability, T/C [49] 103% | viability, T/C [50] 90.3% | viability, T/C [51] 91.2% | viability, T/C [29] 81.8% | viability, T/C [30] 84.7% | viability, T/C [53] 98.8% | viability, T/C [54] 97.1% | viability, T/C [55] 76% | viability, T/C [35] 79.6% | viability, T/C [36] 94% | viability, T/C [57] 86.8% | viability, T/C [58] 94.7% | viability, T/C [59] 93.1%
active: viability, T/C [40] 6.26% | viability, T/C [44] 2.9% | viability, T/C [48] 2.85% | viability, T/C [52] 2.36% | viability, T/C [56] 2.35% | viability, T/C [60] 5.61%
5.45 µM: IC50 (second compound 10 µM)
5.6 µM: IC50 (second compound 0.1 µM)
5.39 µM: IC50 (second compound 1 µM)
5.61 µM: IC50 (second compound 0.316 µM)
4.74 µM: IC50 (second compound 3.16 µM)

CCCS(=O)(=O)Nc1ccc(F)c(C(=O)c2c[nH]c3ncc(-c4ccc(Cl)cc4)cc23)c1F + CC(Nc1ncnc2nc[nH]c12)c1cc2cccc(Cl)c2c(=O)n1-c1ccccc1
4.61 µM: IC50 (second compound 1 µM)
4.4 µM: IC50 (second compound 10 µM)
inactive: viability, T/C [5] 80.7% | viability, T/C [6] 77.9% | viability, T/C [37] 97.8% | viability, T/C [38] 98.2% | viability, T/C [39] 80% | viability, T/C [11] 97.1% | viability, T/C [12] 100% | viability, T/C [41] 90.6% | viability, T/C [42] 97.6% | viability, T/C [43] 82% | viability, T/C [17] 81.3% | viability, T/C [18] 103% | viability, T/C [45] 93.6% | viability, T/C [46] 94.6% | viability, T/C [47] 93.2% | viability, T/C [23] 90.3% | viability, T/C [24] 99.7% | viability, T/C [49] 99.7% | viability, T/C [50] 96.5% | viability, T/C [51] 71.8% | viability, T/C [29] 94.7% | viability, T/C [30] 99.2% | viability, T/C [53] 90.6% | viability, T/C [54] 85.7% | viability, T/C [55] 74.3% | viability, T/C [35] 78.5% | viability, T/C [36] 92.2% | viability, T/C [57] 92.1% | viability, T/C [58] 74.8% | viability, T/C [59] 70.6%
4.97 µM: IC50 (second compound 0.0316 µM)
5.49 µM: IC50 (second compound 0.316 µM)
4.58 µM: IC50 (second compound 3.16 µM)
5.13 µM: IC50 (second compound 0.1 µM)
active: viability, T/C [40] 3.53% | viability, T/C [44] 5.89% | viability, T/C [48] 3.19% | viability, T/C [52] 5.59% | viability, T/C [56] 2.26% | viability, T/C [60] 3.63%

C[C@@H](NC(=O)c1ncnc(N)c1Cl)c1ncc(C(=O)Nc2cc(C(F)(F)F)c(Cl)cn2)s1 + CC(Nc1ncnc2nc[nH]c12)c1cc2cccc(Cl)c2c(=O)n1-c1ccccc1
> 10 µM: IC50 (second compound 0.0316 µM) | IC50 (second compound 0.1 µM) | IC50 (second compound 0.316 µM) | IC50 (second compound 1 µM) | IC50 (second compound 3.16 µM) | IC50 (second compound 10 µM)
inactive: viability, T/C [5] 110% | viability, T/C [6] 105% | viability, T/C [37] 109% | viability, T/C [38] 104% | viability, T/C [39] 105% | viability, T/C [40] 78.4% | viability, T/C [11] 97.4% | viability, T/C [12] 105% | viability, T/C [41] 116% | viability, T/C [42] 106% | viability, T/C [43] 110% | viability, T/C [44] 101% | viability, T/C [17] 109% | viability, T/C [18] 120% | viability, T/C [45] 111% | viability, T/C [46] 95.4% | viability, T/C [47] 89.2% | viability, T/C [48] 98.5% | viability, T/C [23] 83.3% | viability, T/C [24] 92.9% | viability, T/C [49] 109% | viability, T/C [50] 116% | viability, T/C [51] 111% | viability, T/C [52] 93.7% | viability, T/C [29] 106% | viability, T/C [30] 101% | viability, T/C [53] 97.7% | viability, T/C [54] 109% | viability, T/C [55] 109% | viability, T/C [56] 95.6% | viability, T/C [35] 87.8% | viability, T/C [36] 90.2% | viability, T/C [57] 101% | viability, T/C [58] 97.7% | viability, T/C [59] 108% | viability, T/C [60] 97%

Cn1ncnc1[C@H]1c2n[nH]c(=O)c3cc(F)cc(c23)N[C@@H]1c1ccc(F)cc1 + CC(Nc1ncnc2nc[nH]c12)c1cc2cccc(Cl)c2c(=O)n1-c1ccccc1
> 0.1 µM: IC50 (second compound 0.0316 µM) | IC50 (second compound 0.1 µM) | IC50 (second compound 0.316 µM) | IC50 (second compound 1 µM) | IC50 (second compound 3.16 µM) | IC50 (second compound 10 µM)
inactive: viability, T/C [1] 90.9% | viability, T/C [2] 82% | viability, T/C [3] 84.9% | viability, T/C [4] 87.8% | viability, T/C [5] 75.4% | viability, T/C [6] 69% | viability, T/C [7] 99.7% | viability, T/C [8] 106% | viability, T/C [9] 70.9% | viability, T/C [10] 73.4% | viability, T/C [11] 74.1% | viability, T/C [12] 72.2% | viability, T/C [13] 90% | viability, T/C [14] 94.7% | viability, T/C [15] 70.3% | viability, T/C [16] 76.7% | viability, T/C [17] 64.9% | viability, T/C [18] 70% | viability, T/C [19] 85.7% | viability, T/C [20] 77.8% | viability, T/C [21] 89% | viability, T/C [22] 84.2% | viability, T/C [23] 77.7% | viability, T/C [24] 54.1% | viability, T/C [25] 79.9% | viability, T/C [26] 85.9% | viability, T/C [27] 90.3% | viability, T/C [28] 82.4% | viability, T/C [29] 76.8% | viability, T/C [30] 76.5% | viability, T/C [31] 89.7% | viability, T/C [32] 71.3% | viability, T/C [33] 85.2% | viability, T/C [34] 92.3% | viability, T/C [35] 66.9% | viability, T/C [36] 72.2%
